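Five compound concentrations were applied to cells in 96-well plates for 48 hours; endpoints were derived by simple linear interpolation of the resulting dose-response curve. Here, GI50 denotes the concentration required for 50% inhibition of growth. Definition used: TGI = concentration required for complete inhibition of growth.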
Assays:
Assay in all cases: inhibition of tumour cell growth, NCI panel, 48 h
HCC-2998 colon = test system: HCC-2998 colon
MOLT-4 leukemia = test system: MOLT-4 leukemia
MDA-MB-435 = test system: MDA-MB-435
NCI-H226 lung = test system: NCI-H226 lung
NCI-H522 lung = test system: NCI-H522 lung
HCT-15 colon = test system: HCT-15 colon
DU-145 prostate = test system: DU-145 prostate
HS 578T breast = test system: HS 578T breast
NCI-H460 lung = test system: NCI-H460 lung
CAKI-1 renal = test system: CAKI-1 renal
EKVX NSCLC = test system: EKVX NSCLC
SF-539 CNS = test system: SF-539 CNS
RPMI-8226 leukemia = test system: RPMI-8226 leukemia
RXF 393 renal = test system: RXF 393 renal
SR leukemia = test system: SR leukemia
BT-549 breast = test system: BT-549 breast
A498 renal = test system: A498 renal
SF-295 CNS = test system: SF-295 CNS
U251 CNS = test system: U251 CNS
MDA-MB-231 breast = test system: MDA-MB-231 breast
OVCAR-3 ovarian = test system: OVCAR-3 ovarian
UO-31 renal = test system: UO-31 renal
KM12 colon = test system: KM12 colon
HOP-62 NSCLC = test system: HOP-62 NSCLC
MALME-3M melanoma = test system: MALME-3M melanoma
ACHN renal = test system: ACHN renal
SNB-19 CNS = test system: SNB-19 CNS
T-47D breast = test system: T-47D breast
OVCAR-5 ovarian = test system: OVCAR-5 ovarian
A549 NSCLC = test system: A549 NSCLC
SK-MEL-2 melanoma = test system: SK-MEL-2 melanoma
MCF7 breast = test system: MCF7 breast
SK-OV-3 ovarian = test system: SK-OV-3 ovarian
NCI-H23 lung = test system: NCI-H23 lung
IGROV1 ovarian = test system: IGROV1 ovarian
UACC-62 melanoma = test system: UACC-62 melanoma
SN12C renal = test system: SN12C renal
LOX IMVI melanoma = test system: LOX IMVI melanoma
SK-MEL-28 melanoma = test system: SK-MEL-28 melanoma
786-0 renal = test system: 786-0 renal
SK-MEL-5 melanoma = test system: SK-MEL-5 melanoma
TK-10 renal = test system: TK-10 renal
CCRF-CEM leukemia = test system: CCRF-CEM leukemia
M14 melanoma = test system: M14 melanoma
K-562 leukemia = test system: K-562 leukemia
HL-60(TB) leukemia = test system: HL-60(TB) leukemia
UACC-257 melanoma = test system: UACC-257 melanoma
NCI/ADR-RES ovarian = test system: NCI/ADR-RES ovarian
OVCAR-8 ovarian = test system: OVCAR-8 ovarian
SNB-75 CNS = test system: SNB-75 CNS
HCT-116 colon = test system: HCT-116 colon
SW-620 colon = test system: SW-620 colon
HOP-92 NSCLC = test system: HOP-92 NSCLC
COLO 205 colon = test system: COLO 205 colon
OVCAR-4 ovarian = test system: OVCAR-4 ovarian
HT29 colon = test system: HT29 colon
SF-268 CNS = test system: SF-268 CNS
PC-3 prostate = test system: PC-3 prostate

CCN(Cc1ccccc1)c1ccc(CO)c(Cl)c1
GI50 (HCC-2998 colon): 8.33 µM
TGI (HCC-2998 colon): 34.5 µM
GI50 (MOLT-4 leukemia): 29.9 µM
TGI (MOLT-4 leukemia): > 87.2 µM
GI50 (MDA-MB-435): 21.4 µM
TGI (MDA-MB-435): 77.8 µM
GI50 (NCI-H226 lung): 0.0913 µM
TGI (NCI-H226 lung): 0.233 µM
GI50 (NCI-H522 lung): 17.4 µM
TGI (NCI-H522 lung): 63.4 µM
GI50 (HCT-15 colon): 13.8 µM
TGI (HCT-15 colon): > 100 µM
GI50 (DU-145 prostate): 22.5 µM
TGI (DU-145 prostate): > 59.4 µM
GI50 (HS 578T breast): 23.2 µM
TGI (HS 578T breast): > 84.9 µM
GI50 (NCI-H460 lung): 0.327 µM
TGI (NCI-H460 lung): 13.9 µM
GI50 (CAKI-1 renal): 0.845 µM
TGI (CAKI-1 renal): 21.4 µM
GI50 (EKVX NSCLC): 20.1 µM
TGI (EKVX NSCLC): 74.5 µM
GI50 (SF-539 CNS): 30.2 µM
TGI (SF-539 CNS): > 100 µM
GI50 (RPMI-8226 leukemia): 5.53 µM
TGI (RPMI-8226 leukemia): 44.7 µM
GI50 (RXF 393 renal): 6.01 µM
TGI (RXF 393 renal): > 49.7 µM
GI50 (SR leukemia): > 52.1 µM
TGI (SR leukemia): > 100 µM
GI50 (BT-549 breast): 14.1 µM
TGI (BT-549 breast): 44.6 µM
GI50 (A498 renal): 0.042 µM
TGI (A498 renal): 0.169 µM
GI50 (SF-295 CNS): 1 µM
TGI (SF-295 CNS): > 56 µM
GI50 (U251 CNS): 1 µM
TGI (U251 CNS): 50.1 µM
GI50 (MDA-MB-231 breast): 21.2 µM
TGI (MDA-MB-231 breast): > 100 µM
GI50 (OVCAR-3 ovarian): 0.658 µM
TGI (OVCAR-3 ovarian): 3.62 µM
GI50 (UO-31 renal): 6.5 µM
TGI (UO-31 renal): > 100 µM
GI50 (KM12 colon): 20.5 µM
TGI (KM12 colon): 63.3 µM
GI50 (HOP-62 NSCLC): 0.963 µM
TGI (HOP-62 NSCLC): 79.5 µM
GI50 (MALME-3M melanoma): 28.6 µM
TGI (MALME-3M melanoma): > 82.6 µM
GI50 (ACHN renal): 30.2 µM
TGI (ACHN renal): > 100 µM
GI50 (SNB-19 CNS): 51.4 µM
TGI (SNB-19 CNS): > 100 µM
GI50 (T-47D breast): 0.278 µM
TGI (T-47D breast): 2.25 µM
GI50 (OVCAR-5 ovarian): 0.164 µM
TGI (OVCAR-5 ovarian): 0.593 µM
GI50 (A549 NSCLC): 2.18 µM
TGI (A549 NSCLC): 25.4 µM
GI50 (SK-MEL-2 melanoma): 3.79 µM
TGI (SK-MEL-2 melanoma): 24.7 µM
GI50 (MCF7 breast): 0.338 µM
TGI (MCF7 breast): 25.9 µM
GI50 (SK-OV-3 ovarian): 5.78 µM
TGI (SK-OV-3 ovarian): 35.6 µM
GI50 (NCI-H23 lung): 9.44 µM
TGI (NCI-H23 lung): > 86 µM
GI50 (IGROV1 ovarian): 0.112 µM
TGI (IGROV1 ovarian): 0.934 µM
GI50 (UACC-62 melanoma): 0.104 µM
TGI (UACC-62 melanoma): 0.695 µM
GI50 (SN12C renal): 19.8 µM
TGI (SN12C renal): > 100 µM
GI50 (LOX IMVI melanoma): 23.8 µM
TGI (LOX IMVI melanoma): > 100 µM
GI50 (SK-MEL-28 melanoma): 29.2 µM
TGI (SK-MEL-28 melanoma): > 100 µM
GI50 (786-0 renal): 12 µM
TGI (786-0 renal): 39.3 µM
GI50 (SK-MEL-5 melanoma): 5.83 µM
TGI (SK-MEL-5 melanoma): 28.7 µM
GI50 (TK-10 renal): 0.0649 µM
TGI (TK-10 renal): 0.281 µM
GI50 (CCRF-CEM leukemia): 23.3 µM
TGI (CCRF-CEM leukemia): > 100 µM
GI50 (M14 melanoma): 20.1 µM
TGI (M14 melanoma): > 65.1 µM
GI50 (K-562 leukemia): 2.69 µM
TGI (K-562 leukemia): > 100 µM
GI50 (HL-60(TB) leukemia): 11.1 µM
TGI (HL-60(TB) leukemia): 46.7 µM
GI50 (UACC-257 melanoma): 0.131 µM
TGI (UACC-257 melanoma): 0.316 µM
GI50 (NCI/ADR-RES ovarian): 14.4 µM
TGI (NCI/ADR-RES ovarian): 56.8 µM
GI50 (OVCAR-8 ovarian): 12.1 µM
TGI (OVCAR-8 ovarian): > 100 µM
GI50 (SNB-75 CNS): 13.6 µM
TGI (SNB-75 CNS): 69.7 µM
GI50 (HCT-116 colon): 0.11 µM
TGI (HCT-116 colon): 10.2 µM
GI50 (SW-620 colon): 1.27 µM
TGI (SW-620 colon): > 100 µM
GI50 (HOP-92 NSCLC): 1.67 µM
TGI (HOP-92 NSCLC): 15.3 µM
GI50 (COLO 205 colon): 1.74 µM
TGI (COLO 205 colon): 4.51 µM
GI50 (OVCAR-4 ovarian): 0.416 µM
TGI (OVCAR-4 ovarian): 12.1 µM
GI50 (HT29 colon): 3.07 µM
TGI (HT29 colon): 36.3 µM
GI50 (SF-268 CNS): 26.7 µM
TGI (SF-268 CNS): > 70.6 µM
GI50 (PC-3 prostate): 18.2 µM
TGI (PC-3 prostate): > 53.6 µM

Source: PubChem BioAssay (NCI)
